# Experimental data as given in ChEMBL document CHEMBL1201862, “PubChem BioAssay data set” (2004).
#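 Tested at 5 concentrations; 48 h exposure; 96-well plates; endpoints linearly interpolated, else capped at highest concentration. The concentration for 50% growth inhibition is given as GI50.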 Activity calls are given as the source filed them. Rule as the data show it: active = GI50 up to about 1.1 µM and inactive = higher.
# Key:
# Assay in all cases: inhibition of tumour cell growth, NCI panel, 48 h
# RPMI-8226 = tested on: RPMI-8226
# NCI-H226 = tested on: NCI-H226
# 786-0 = tested on: 786-0
# OVCAR-4 = tested on: OVCAR-4
# SNB-19 = tested on: SNB-19
# SR = tested on: SR
# RXF 393 = tested on: RXF 393
# SF-295 = tested on: SF-295
# OVCAR-5 = tested on: OVCAR-5
# BT-549 = tested on: BT-549
# IGROV-1 = tested on: IGROV-1
# NCI-H460 = tested on: NCI-H460
# HOP-92 = tested on: HOP-92
# K562 = tested on: K562
# MCF7 = tested on: MCF7
# SNB-75 = tested on: SNB-75
# COLO 205 = tested on: COLO 205
# UO-31 = tested on: UO-31
# SF-268 = tested on: SF-268
# SK-OV-3 = tested on: SK-OV-3
Structure (SMILES),GI50 (RPMI-8226),GI50 (NCI-H226),GI50 (786-0),GI50 (OVCAR-4),GI50 (SNB-19),GI50 (SR),GI50 (RXF 393),GI50 (SF-295),GI50 (OVCAR-5),GI50 (BT-549),GI50 (IGROV-1),GI50 (NCI-H460),GI50 (HOP-92),GI50 (K562),GI50 (MCF7),GI50 (SNB-75),GI50 (COLO 205),GI50 (UO-31),GI50 (SF-268),GI50 (SK-OV-3)
COc1cc(OCc2ccc3nc(-c4ccccc4)c(N)nc3c2)cc(OC)c1OC,8.79 µM (inactive),21.3 µM (inactive),30.8 µM (inactive),13.8 µM (inactive),24.2 µM (inactive),17.9 µM (inactive),23.1 µM (inactive),26 µM (inactive),17.6 µM (inactive),16.1 µM (inactive),22.2 µM (inactive),18.7 µM (inactive),11.4 µM (inactive),15.5 µM (inactive),22 µM (inactive),19.2 µM (inactive),16.5 µM (inactive),10.7 µM (inactive),34.8 µM (inactive),
CN(C)c1ccc(/N=N\c2cccc3ncccc23)cc1,18.1 µM (inactive),> 72.3 µM (inactive),> 80.4 µM (inactive),> 100 µM (inactive),> 58.1 µM (inactive),55 µM (inactive),> 100 µM (inactive),> 78 µM (inactive),,65.5 µM (inactive),< 0.0159 µM (active),26.6 µM (inactive),36.9 µM (inactive),35.4 µM (inactive),0.063 µM (active),36.6 µM (inactive),64 µM (inactive),8.53 µM (inactive),> 94 µM (inactive),> 100 µM (inactive)
S=C1Cc2c(-c3ccccc3)cc(-c3ccc(Cl)cc3)nc2-c2ccccc2N1,> 100 µM (inactive),2.9 µM (inactive),1.08 µM (active),0.42 µM (active),1.56 µM (inactive),> 68.7 µM (inactive),3.06 µM (inactive),3.39 µM (inactive),7.45 µM (inactive),5.56 µM (inactive),0.971 µM (active),3.27 µM (inactive),1.72 µM (inactive),,15.1 µM (inactive),0.951 µM (active),5.57 µM (inactive),1.96 µM (inactive),1.89 µM (inactive),2.38 µM (inactive)
CC1=NN(C(=O)CC(=O)Nc2cccc(Cl)c2)C(=O)C1/N=N/c1ccc(C(=O)O)cc1 (stereo unspecified),> 100 µM (inactive),,> 100 µM (inactive),> 100 µM (inactive),> 100 µM (inactive),48.9 µM (inactive),> 100 µM (inactive),> 100 µM (inactive),> 100 µM (inactive),> 100 µM (inactive),> 100 µM (inactive),> 100 µM (inactive),27.7 µM (inactive),> 100 µM (inactive),> 100 µM (inactive),52.1 µM (inactive),> 100 µM (inactive),65.2 µM (inactive),> 100 µM (inactive),
COC1(OC)c2occc2C(=N)c2ccc(=O)oc21,> 100 µM (inactive),> 100 µM (inactive),> 100 µM (inactive),> 100 µM (inactive),> 100 µM (inactive),71.8 µM (inactive),> 100 µM (inactive),> 100 µM (inactive),> 100 µM (inactive),> 100 µM (inactive),> 100 µM (inactive),> 100 µM (inactive),> 100 µM (inactive),> 100 µM (inactive),81.8 µM (inactive),,> 100 µM (inactive),> 100 µM (inactive),> 100 µM (inactive),> 100 µM (inactive)
CC(=O)OCC1OC(NC(=S)CCSc2nc3ccccc3c(=O)n2-c2ccccc2)C(OC(C)=O)C(OC(C)=O)C1OC(C)=O (stereo unspecified),> 100 µM (inactive),50.5 µM (inactive),63.2 µM (inactive),,34 µM (inactive),34.1 µM (inactive),18 µM (inactive),32.5 µM (inactive),22.6 µM (inactive),31.4 µM (inactive),2.34 µM (inactive),> 100 µM (inactive),16.9 µM (inactive),34.2 µM (inactive),> 100 µM (inactive),22 µM (inactive),40.1 µM (inactive),42 µM (inactive),> 100 µM (inactive),46.9 µM (inactive)
Cc1ccc(S(=O)(=O)N2CCN(CCO)CCN(S(=O)(=O)c3ccc(C)cc3)CCN(CCO)CC2)cc1,,20.9 µM (inactive),23.6 µM (inactive),15 µM (inactive),37.8 µM (inactive),12.3 µM (inactive),13.9 µM (inactive),31.7 µM (inactive),44.1 µM (inactive),60.8 µM (inactive),21.5 µM (inactive),14.3 µM (inactive),21.5 µM (inactive),17.1 µM (inactive),13.4 µM (inactive),26.3 µM (inactive),15.3 µM (inactive),22.6 µM (inactive),26.1 µM (inactive),
O=c1c2c3ccccc3[nH]c2c2cccc3c2n1CCC3,,50.6 µM (inactive),4.27 µM (inactive),,> 100 µM (inactive),25.9 µM (inactive),29.4 µM (inactive),37.7 µM (inactive),66.7 µM (inactive),29.6 µM (inactive),84.5 µM (inactive),34.8 µM (inactive),40.2 µM (inactive),32.3 µM (inactive),35.1 µM (inactive),50.4 µM (inactive),54 µM (inactive),> 10 µM (inactive),33 µM (inactive),83.6 µM (inactive)
Cn1c(=O)n2n(c1=O)[C@@H](c1ccccc1)[C@H]2c1ccccc1,,> 100 µM (inactive),> 100 µM (inactive),> 100 µM (inactive),> 100 µM (inactive),> 100 µM (inactive),> 100 µM (inactive),> 100 µM (inactive),> 100 µM (inactive),> 100 µM (inactive),> 100 µM (inactive),> 100 µM (inactive),> 100 µM (inactive),64.3 µM (inactive),> 100 µM (inactive),31 µM (inactive),> 100 µM (inactive),> 100 µM (inactive),,> 100 µM (inactive)
CC(C)(C)OC(=O)N1CCCC1=O,> 10 µM (inactive),> 10 µM (inactive),> 10 µM (inactive),,> 10 µM (inactive),> 10 µM (inactive),> 10 µM (inactive),> 10 µM (inactive),> 10 µM (inactive),> 10 µM (inactive),> 10 µM (inactive),> 10 µM (inactive),> 10 µM (inactive),> 10 µM (inactive),> 10 µM (inactive),> 10 µM (inactive),,> 10 µM (inactive),> 10 µM (inactive),> 10 µM (inactive)
Cc1ccc(-c2c3c(n(C4OC(CO)C(O)C(O)C4O)c(=S)c2C#N)CC(C)(C)CC3=O)cc1 (stereo unspecified),32.7 µM (inactive),48.6 µM (inactive),47.4 µM (inactive),> 100 µM (inactive),> 100 µM (inactive),37 µM (inactive),> 100 µM (inactive),> 100 µM (inactive),> 100 µM (inactive),50 µM (inactive),> 100 µM (inactive),52.2 µM (inactive),68.7 µM (inactive),45.2 µM (inactive),45.7 µM (inactive),49.1 µM (inactive),> 10 µM (inactive),60 µM (inactive),> 100 µM (inactive),
COc1ccc(C2=Cc3nc2c(-c2ccccc2)c2ccc([nH]2)c(-c2ccccc2)c2nc(c(-c4ccccc4)c4ccc([nH]4)c3-c3ccccc3)C=C2)cc1,,> 100 µM (inactive),> 100 µM (inactive),> 100 µM (inactive),48.2 µM (inactive),> 100 µM (inactive),> 100 µM (inactive),> 100 µM (inactive),> 100 µM (inactive),> 100 µM (inactive),> 100 µM (inactive),> 100 µM (inactive),35.2 µM (inactive),> 100 µM (inactive),> 100 µM (inactive),25.2 µM (inactive),> 100 µM (inactive),> 100 µM (inactive),51.4 µM (inactive),> 100 µM (inactive)
Cn1c([C@H](C#N)C(=O)c2cc(O)ccc2[N+](=O)[O-])nc2ccccc21,> 100 µM (inactive),,> 100 µM (inactive),> 100 µM (inactive),> 100 µM (inactive),5.98 µM (inactive),,> 100 µM (inactive),> 100 µM (inactive),16 µM (inactive),> 100 µM (inactive),> 100 µM (inactive),> 100 µM (inactive),,> 100 µM (inactive),> 100 µM (inactive),> 100 µM (inactive),> 100 µM (inactive),> 100 µM (inactive),
O=c1ccn([C@@H]2C[C@@H]2CO)c(=O)[nH]1,> 100 µM (inactive),> 100 µM (inactive),> 100 µM (inactive),> 100 µM (inactive),> 100 µM (inactive),> 100 µM (inactive),> 100 µM (inactive),,> 100 µM (inactive),> 100 µM (inactive),> 100 µM (inactive),> 100 µM (inactive),> 100 µM (inactive),> 100 µM (inactive),> 100 µM (inactive),> 100 µM (inactive),> 100 µM (inactive),> 100 µM (inactive),> 100 µM (inactive),
COC(=O)[C@@H]1COC(C(C)(C)C)N1C(=O)C(c1ccccc1)c1ccccc1 (stereo partly specified),,49.7 µM (inactive),46.2 µM (inactive),43.2 µM (inactive),40.9 µM (inactive),0.446 µM (active),13.2 µM (inactive),60.1 µM (inactive),> 100 µM (inactive),> 100 µM (inactive),73.1 µM (inactive),40.3 µM (inactive),37 µM (inactive),19.5 µM (inactive),64.3 µM (inactive),32.4 µM (inactive),61.7 µM (inactive),52.5 µM (inactive),> 100 µM (inactive),31.4 µM (inactive)
